Numbers after ± are expanded uncertainties.
Conditions: 283.15 K, Liquid, Vibrating tube method

CCCC(=O)OCC(COC(=O)CCC)(COC(=O)CCC)COC(=O)CCC [pentaerythritol tetrabutyrate]
Conditions	mass density [kg/m3]
26946 kPa	1074.1 ± 1.3
26974 kPa	1074.2 ± 1.3
26998 kPa	1074.3 ± 1.3
27022 kPa	1074.2 ± 1.3
27050 kPa	1074.3 ± 1.3
27074 kPa	1074.2 ± 1.3
27098 kPa	1074.2 ± 1.3
27122 kPa	1074.3 ± 1.3
27151 kPa	1074.2 ± 1.3
27174 kPa	1074.3 ± 1.3
27198 kPa	1074.2 ± 1.3
27228 kPa	1074.3 ± 1.3
27248 kPa	1074.3 ± 1.3
27267 kPa	1074.4 ± 1.3
27296 kPa	1074.4 ± 1.3
27330 kPa	1074.3 ± 1.3
27354 kPa	1074.3 ± 1.3
27384 kPa	1074.5 ± 1.3
27408 kPa	1074.4 ± 1.3
27433 kPa	1074.5 ± 1.3
27463 kPa	1074.4 ± 1.3
27488 kPa	1074.4 ± 1.3
27512 kPa	1074.4 ± 1.3
27542 kPa	1074.4 ± 1.3
27566 kPa	1074.6 ± 1.3
27592 kPa	1074.5 ± 1.3
27622 kPa	1074.5 ± 1.3
27646 kPa	1074.5 ± 1.3
27672 kPa	1074.6 ± 1.3
27701 kPa	1074.7 ± 1.3
27726 kPa	1074.6 ± 1.3
27752 kPa	1074.6 ± 1.3
27782 kPa	1074.5 ± 1.3
27808 kPa	1074.6 ± 1.3
27833 kPa	1074.6 ± 1.3
27863 kPa	1074.6 ± 1.3
27889 kPa	1074.6 ± 1.3
27915 kPa	1074.7 ± 1.3
27941 kPa	1074.7 ± 1.3
27972 kPa	1074.8 ± 1.3
27998 kPa	1074.6 ± 1.3
28024 kPa	1074.7 ± 1.3
28049 kPa	1074.8 ± 1.3
28080 kPa	1074.8 ± 1.3
28101 kPa	1074.7 ± 1.3
28127 kPa	1074.7 ± 1.3
28164 kPa	1074.8 ± 1.3
28190 kPa	1074.8 ± 1.3
28217 kPa	1074.7 ± 1.3
28249 kPa	1074.7 ± 1.3
28276 kPa	1074.8 ± 1.3
28303 kPa	1074.9 ± 1.3
28329 kPa	1074.9 ± 1.3
28356 kPa	1075 ± 1.3
28388 kPa	1074.9 ± 1.3
28415 kPa	1074.9 ± 1.3
28447 kPa	1075 ± 1.3
28474 kPa	1075.1 ± 1.3
28500 kPa	1075 ± 1.3
28527 kPa	1075 ± 1.3
28559 kPa	1075.1 ± 1.3
28586 kPa	1075 ± 1.3
28618 kPa	1075.1 ± 1.3
28646 kPa	1075.1 ± 1.3
28674 kPa	1075.2 ± 1.3
28706 kPa	1075.1 ± 1.3
28733 kPa	1075 ± 1.3
28760 kPa	1075.2 ± 1.3
28787 kPa	1075.2 ± 1.3
28820 kPa	1075.2 ± 1.3
28847 kPa	1075.2 ± 1.3
28881 kPa	1075.2 ± 1.3
28908 kPa	1075.1 ± 1.3
28936 kPa	1075.1 ± 1.3
28969 kPa	1075.2 ± 1.3
28985 kPa	1075.3 ± 1.3
28997 kPa	1075.2 ± 1.3
29011 kPa	1075.2 ± 1.3
29026 kPa	1075.1 ± 1.3
29043 kPa	1075.2 ± 1.3
29054 kPa	1075.3 ± 1.3
29088 kPa	1075.3 ± 1.3
29116 kPa	1075.3 ± 1.3
29146 kPa	1075.2 ± 1.3
29150 kPa	1075.4 ± 1.3
29179 kPa	1075.3 ± 1.3
29207 kPa	1075.3 ± 1.3
29240 kPa	1075.3 ± 1.3
29253 kPa	1075.5 ± 1.3
29268 kPa	1075.4 ± 1.3
29296 kPa	1075.4 ± 1.3
29322 kPa	1075.4 ± 1.3
29330 kPa	1075.5 ± 1.3
29357 kPa	1075.4 ± 1.3
29385 kPa	1075.6 ± 1.3
29417 kPa	1075.4 ± 1.3
29442 kPa	1075.4 ± 1.3
29443 kPa	1075.6 ± 1.3
29464 kPa	1075.4 ± 1.3
29471 kPa	1075.6 ± 1.3
29482 kPa	1075.7 ± 1.3
29505 kPa	1075.5 ± 1.3
29534 kPa	1075.5 ± 1.3
29557 kPa	1075.5 ± 1.3
29562 kPa	1075.6 ± 1.3
29590 kPa	1075.5 ± 1.3
29625 kPa	1075.6 ± 1.3
29628 kPa	1075.6 ± 1.3
29649 kPa	1075.5 ± 1.3
29655 kPa	1075.6 ± 1.3
29683 kPa	1075.6 ± 1.3
29711 kPa	1075.5 ± 1.3
29718 kPa	1075.7 ± 1.3
29748 kPa	1075.7 ± 1.3
29778 kPa	1075.5 ± 1.3
29786 kPa	1075.7 ± 1.3
29808 kPa	1075.6 ± 1.3
29843 kPa	1075.7 ± 1.3
29859 kPa	1075.7 ± 1.3
29872 kPa	1075.7 ± 1.3
29901 kPa	1075.7 ± 1.3
29931 kPa	1075.8 ± 1.3
29943 kPa	1075.7 ± 1.3
29966 kPa	1075.7 ± 1.3
29996 kPa	1075.8 ± 1.3
30016 kPa	1075.8 ± 1.3
30031 kPa	1075.7 ± 1.3
30034 kPa	1075.7 ± 1.3
30037 kPa	1075.8 ± 1.3
30045 kPa	1075.9 ± 1.3
30052 kPa	1075.8 ± 1.3
30061 kPa	1075.8 ± 1.3
30091 kPa	1075.8 ± 1.3
30121 kPa	1075.8 ± 1.3
30158 kPa	1075.9 ± 1.3
30189 kPa	1075.9 ± 1.3
30208 kPa	1075.9 ± 1.3
30219 kPa	1075.9 ± 1.3
30250 kPa	1075.8 ± 1.3
30282 kPa	1076 ± 1.3
30285 kPa	1075.9 ± 1.3
30316 kPa	1076 ± 1.3
30325 kPa	1076 ± 1.3
30346 kPa	1075.9 ± 1.3
30381 kPa	1076 ± 1.3
30411 kPa	1075.9 ± 1.3
